Source: patent publication US20050227980A1, “Aralkyl and aralkylidene heterocyclic lactam and imides” (Pfizer Inc., priority 2003, published 2005)
Structures can show the parent of a compound that is named as a salt.

| SMILES | melting point |
| --- | --- |
| CN1CCN(c2cccc(F)c2C=C2OCCN(c3ccc(C(C)(C)C)cc3)C2=O)CC1.Cl | 187.5 to 192.6 °C |
| CN1CCN(c2cccc(C(F)(F)F)c2C=C2OCCN(c3ccc(C(C)(C)C)cc3)C2=O)CC1.Cl | 205 °C (dec.) |
| CN1CCN(c2cccc(Cl)c2C=C2OCCN(c3ccc(C(C)(C)C)cc3)C2=O)CC1.Cl | 139 to 142 °C |
| CC(C)c1ccc(N2CCOC(Cc3ccccc3N3CCN(C)CC3)C2=O)cc1.Cl (racemic) | 185.7 to 188.1 °C |
| CN1CCN(c2cccc(Cl)c2CC2OCCN(c3ccc(C(C)(C)C)cc3)C2=O)CC1.Cl (racemic) | 215 °C (dec.) |
| CN1CCN(c2ccccc2CC2OCCN(c3ccc(-c4ccccc4)cc3)C2=O)CC1.Cl (racemic) | 219.4 to 222.2 °C |
| CC1CN(c2ccccc2CC2OCCN(c3ccc(C(C)(C)C)cc3)C2=O)CC(C)N1C.Cl (racemic) | 135 °C (dec.) |
| CN1CCN(c2ccccc2CC2OCCN(Cc3ccc(C(C)(C)C)cc3)C2=O)CC1.Cl (racemic) | 215 to 216 °C |
| CN1CCN(c2ccccc2CC2OCCN(c3ccc(C(C)(C)C)cc3)C2=O)CC1 (racemic) (as salt: tartrate) [Example 23, (±)-4-(4-tert-Butyl-phenyl)-2-[2-(4-methylpiperazin-1-yl)-benzyl]-morpholin-3-one] | 179 to 180 °C (dec.) |
| CN1CCN(c2cc(Cl)ccc2CC2OCCN(c3ccc(C(C)(C)C)cc3)C2=O)CC1 (racemic) [Example 27 (±), (±)-4-(4-tert-Butyl-phenyl)-2-[4-chloro-2-(4-methylpiperazin-1-yl)-benzyl]-morpholin-3-one] | 161.9 to 163.5 °C |
| CN1CCN(c2cccc(F)c2CC2OCCN(c3ccc(C(C)(C)C)cc3)C2=O)CC1.Cl (racemic) [Example 28 (±)] | 190.5 to 192.1 °C |
| CN1CCN(c2cc(F)ccc2CC2OCCN(c3ccc(C(C)(C)C)cc3)C2=O)CC1.Cl (racemic) [Example 29 (±)] | 155.9 to 159.9 °C |
| CN1CCN(c2c(F)cccc2CC2OCCN(c3ccc(C(C)(C)C)cc3)C2=O)CC1.Cl (racemic) [Example 30 (±)] | 107 to 108.7 °C |
| CN1CCN(c2ccc(C(F)(F)F)cc2CC2OCCN(c3ccc(C(C)(C)C)cc3)C2=O)CC1 (racemic) [Example 32 (±), (±)-4-(4-tert-Butyl-phenyl)-2-[2-(4-methylpiperazin-1-yl)-5-trifluoromethyl-benzyl]-morpholin-3-one] | 145.1 to 146.2 °C |
| CN1CCN(c2ccccc2CC2OCCN(c3ccc(C(C)(C)C)cc3)C2=O)CC1.Cl (single isomer, unassigned) [Example 24 (+)] | 165.8 to 171.2 °C |
| CN1CCN(c2ccccc2CC2OCCN(c3ccc(C(C)(C)C)cc3)C2=O)CC1.Cl (single isomer, unassigned) [Example 24 (−)] | 187.1 to 191.2 °C |
| Cc1ccc(N2CCN(C)CC2)c(CC2OCCN(c3ccc(C(C)(C)C)cc3)C2=O)c1 (single isomer, unassigned; (+)) [Example 31 (+), (+)-4-(4-tert-Butyl-phenyl)-2-[5-methyl-2-(4-methylpiperazin-1-yl)-benzyl]-morpholin-3-one] | 92 to 93 °C |
| Cc1ccc(N2CCN(C)CC2)c(CC2OCCN(c3ccc(C(C)(C)C)cc3)C2=O)c1 (single isomer, unassigned; (-)) [Example 31 (−), (−)-4-(4-tert-Butyl-phenyl)-2-[5-methyl-2-(4-methylpiperazin-1-yl)-benzyl]-morpholin-3-one] | 86 to 88 °C |

| SMILES | melting point |
| --- | --- |
| CC(C)c1ccc(N2CCOC(=Cc3ccccc3N3CCN(C)CC3)C2=O)cc1 [Example 3, 2-[2-(4-Methylpiperazin-1-yl)-benzylidene]-4-(4-isopropylphenyl)-morpholin-3-one] | 155 to 156 °C |
| CN1CCN(c2ccccc2C=C2OCCN(c3ccc(C(C)(C)C)cc3)C2=O)CC1 [Example 5, 2-[2-(4-Methylpiperazin-1-yl)-benzylidene]-4-(4-tert-butylphenyl)-morpholin-3-one] | 169 to 171 °C |
| CC1CN(c2ccccc2C=C2OCCN(c3ccc(C(C)(C)C)cc3)C2=O)CC(C)N1C (stereo not drawn) [Example 6, 2-[2-(3,4,5-Trimethylpiperazin-1-yl)-benzylidene]-4-(4-tert-butylphenyl)-morpholin-3-one] | 167 to 168 °C |
| CN1CCN(c2cc(Cl)ccc2C=C2OCCN(c3ccc(C(C)(C)C)cc3)C2=O)CC1 [Example 10, 4-(4-tert-Butyl-phenyl)-2-[4-chloro-2-(4-methylpiperazin-1-yl)-benzylidene]-morpholin-3-one] | 209 to 210.8 °C |
| CN1CCN(c2c(F)cccc2C=C2OCCN(c3ccc(C(C)(C)C)cc3)C2=O)CC1 [Example 12, 4-(4-tert-Butyl-phenyl)-2-[3-fluoro-2-(4-methylpiperazin-1-yl)-benzylidene]-morpholin-3-one] | 184.3 to 187.1 °C |
| CN1CCN(c2cc(C(F)(F)F)ccc2C=C2OCCN(c3ccc(C(C)(C)C)cc3)C2=O)CC1 [Example 14, 4-(4-tert-Butyl-phenyl)-2-[2-(4-methylpiperazin-1-yl)-4-trifluoromethyl-benzylidene]-morpholin-3-one] | 186.3 to 191.9 °C |
| Cc1ccc(N2CCN(C)CC2)c(C=C2OCCN(c3ccc(C(C)(C)C)cc3)C2=O)c1 [Example 15, 4-(4-tert-Butyl-phenyl)-2-[5-methyl-2-(4-methylpiperazin-1-yl)-benzylidene]-morpholin-3-one] | 209.2 to 211 °C |
| CN1CCN(c2ccccc2C=C2OCCN(Cc3ccc(C(C)(C)C)cc3)C2=O)CC1 [Example 20, 4-(4-tert-Butyl-benzyl)-2-[2-(4-methylpiperazin-1-yl)-benzylidene]-morpholin-3-one] | 68 to 70 °C |
| CN1CCN(c2cc(Cl)ccc2CC2OCCN(c3ccc(C(C)(C)C)cc3)C2=O)CC1.Cl (stereo not drawn) [Example 27 (+)] | 159.5 to 161.7 °C |
| CN1CCN(c2cc(Cl)ccc2CC2OCCN(c3ccc(C(C)(C)C)cc3)C2=O)CC1.Cl (stereo not drawn) [Example 27 (−)] | 159 to 161.8 °C |
| CN1CCN(c2cccc(F)c2CC2OCCN(c3ccc(C(C)(C)C)cc3)C2=O)CC1.Cl (stereo not drawn) [Example 28 (+)] | 176.9 to 179.3 °C |
| CN1CCN(c2cccc(F)c2CC2OCCN(c3ccc(C(C)(C)C)cc3)C2=O)CC1.Cl (stereo not drawn) [Example 28 (−)] | 178 to 181.4 °C |
| CN1CCN(c2cc(F)ccc2CC2OCCN(c3ccc(C(C)(C)C)cc3)C2=O)CC1.Cl (stereo not drawn) [Example 29 (+)] | 157.4 to 159.6 °C |
| CN1CCN(c2cc(F)ccc2CC2OCCN(c3ccc(C(C)(C)C)cc3)C2=O)CC1.Cl (stereo not drawn) [Example 29 (−)] | 156.2 to 158.1 °C |
| CN1CCN(c2c(F)cccc2CC2OCCN(c3ccc(C(C)(C)C)cc3)C2=O)CC1.Cl (stereo not drawn) [Example 30 (+)] | 104.7 °C (dec.) |
| CN1CCN(c2c(F)cccc2CC2OCCN(c3ccc(C(C)(C)C)cc3)C2=O)CC1.Cl (stereo not drawn) [Example 30 (−)] | 128.5 to 129.9 °C |
| CN1CCN(c2ccc(C(F)(F)F)cc2CC2OCCN(c3ccc(C(C)(C)C)cc3)C2=O)CC1.Cl (stereo not drawn) [Example 32 (+)] | 136 to 138 °C |
| CN1CCN(c2ccc(C(F)(F)F)cc2CC2OCCN(c3ccc(C(C)(C)C)cc3)C2=O)CC1.Cl (stereo not drawn) [Example 32 (−)] | 128 to 130 °C |
